Experiments:
[1] = compound: NC(=O)CCCCC1CCSS1 [lipoamide]; assay: thermal stability z-score vs DMSO; higher = more thermally stabilized by treatment; details: HeLa, lipoamide concentration 100 µM
Procedure: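 Cellular thermal proteome profiling in HeLa cells. Cells were treated with 100 µM lipoamide for 1 h, with or without 1 mM arsenate for a further 1 h, then heated to ten temperatures (37-66.3 °C), and soluble protein was quantified by TMT mass spectrometry relative to 0.1% DMSO controls. The thermal stability score (sum of log2 fold changes minus the abundance score) was transformed to a z-score; mean of n = 3 experiments.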

[2] = compound: O=[As]([O-])(O)O.[K+] [potassium arsenate]; assay: as above; details: HeLa; arsenate concentration 1 mM
Procedure: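 Cellular thermal proteome profiling in HeLa cells treated with 1 mM arsenate for 1 h (DMSO pretreatment), heated to ten temperatures (37-66.3 °C). Soluble protein was quantified by TMT mass spectrometry relative to DMSO controls; the thermal stability score was transformed to a z-score; mean of n = 3 experiments.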

[3] = arsenate co-treatment: 1 mM arsenate 1 h
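Note: each temperature applied for 3 min, abundance score taken as mean log2 fold change at the two lowest temperatures, z-score obtained by mean subtraction and division by SD.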

Sequence of UniProt Q8TE77 (Q8TE77 whole entry): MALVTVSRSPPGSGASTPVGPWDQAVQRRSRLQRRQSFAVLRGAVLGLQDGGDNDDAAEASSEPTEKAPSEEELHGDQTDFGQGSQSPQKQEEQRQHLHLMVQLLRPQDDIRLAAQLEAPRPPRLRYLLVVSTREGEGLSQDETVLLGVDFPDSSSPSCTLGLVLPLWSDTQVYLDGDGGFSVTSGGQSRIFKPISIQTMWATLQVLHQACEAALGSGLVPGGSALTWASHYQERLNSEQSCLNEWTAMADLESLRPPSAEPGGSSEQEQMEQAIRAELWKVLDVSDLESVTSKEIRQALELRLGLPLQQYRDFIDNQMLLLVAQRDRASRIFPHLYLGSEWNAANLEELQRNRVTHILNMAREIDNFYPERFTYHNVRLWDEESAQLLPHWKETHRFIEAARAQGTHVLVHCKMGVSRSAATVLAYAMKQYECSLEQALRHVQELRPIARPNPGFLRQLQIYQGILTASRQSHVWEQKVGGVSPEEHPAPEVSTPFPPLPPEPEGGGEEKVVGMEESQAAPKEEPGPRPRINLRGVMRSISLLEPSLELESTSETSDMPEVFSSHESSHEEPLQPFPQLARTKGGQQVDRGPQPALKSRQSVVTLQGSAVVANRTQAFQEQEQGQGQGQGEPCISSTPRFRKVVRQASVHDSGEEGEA
Sequence of UniProt Q9H4A4 (Q9H4A4 whole entry): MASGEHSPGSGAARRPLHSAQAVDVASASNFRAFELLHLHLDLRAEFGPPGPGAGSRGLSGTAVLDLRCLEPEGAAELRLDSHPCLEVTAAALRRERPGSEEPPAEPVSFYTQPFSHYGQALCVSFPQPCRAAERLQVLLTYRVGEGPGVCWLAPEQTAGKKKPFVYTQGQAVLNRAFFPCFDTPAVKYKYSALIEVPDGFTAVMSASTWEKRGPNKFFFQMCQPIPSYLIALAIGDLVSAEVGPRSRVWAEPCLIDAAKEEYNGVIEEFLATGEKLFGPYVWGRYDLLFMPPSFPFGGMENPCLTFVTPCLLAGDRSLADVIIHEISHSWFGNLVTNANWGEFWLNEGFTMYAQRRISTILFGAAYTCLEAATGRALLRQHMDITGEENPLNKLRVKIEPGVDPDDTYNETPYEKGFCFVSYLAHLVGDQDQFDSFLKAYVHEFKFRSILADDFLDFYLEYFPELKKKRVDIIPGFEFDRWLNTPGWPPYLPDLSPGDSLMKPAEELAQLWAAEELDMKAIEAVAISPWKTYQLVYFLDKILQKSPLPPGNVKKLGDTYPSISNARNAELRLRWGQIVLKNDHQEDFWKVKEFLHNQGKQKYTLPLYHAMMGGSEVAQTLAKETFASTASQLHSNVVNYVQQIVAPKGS
Sequence of UniProt Q7L775 (Q7L775 whole entry): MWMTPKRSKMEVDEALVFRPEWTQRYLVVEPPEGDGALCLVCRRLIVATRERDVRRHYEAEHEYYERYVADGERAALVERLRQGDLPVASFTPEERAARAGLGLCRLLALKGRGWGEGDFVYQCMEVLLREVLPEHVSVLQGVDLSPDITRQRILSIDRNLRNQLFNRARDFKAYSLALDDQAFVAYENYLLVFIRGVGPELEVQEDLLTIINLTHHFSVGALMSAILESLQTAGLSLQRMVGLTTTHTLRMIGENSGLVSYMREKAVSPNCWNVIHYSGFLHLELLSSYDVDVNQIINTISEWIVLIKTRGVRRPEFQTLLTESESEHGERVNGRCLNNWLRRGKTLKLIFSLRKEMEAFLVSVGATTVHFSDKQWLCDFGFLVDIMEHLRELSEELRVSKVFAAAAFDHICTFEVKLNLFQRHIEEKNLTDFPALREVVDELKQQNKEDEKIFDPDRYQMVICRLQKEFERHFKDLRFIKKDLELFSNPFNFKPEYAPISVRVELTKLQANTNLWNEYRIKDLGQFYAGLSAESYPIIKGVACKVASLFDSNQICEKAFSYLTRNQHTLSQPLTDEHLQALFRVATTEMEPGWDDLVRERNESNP
Sequence of UniProt P35573 (P35573 whole entry): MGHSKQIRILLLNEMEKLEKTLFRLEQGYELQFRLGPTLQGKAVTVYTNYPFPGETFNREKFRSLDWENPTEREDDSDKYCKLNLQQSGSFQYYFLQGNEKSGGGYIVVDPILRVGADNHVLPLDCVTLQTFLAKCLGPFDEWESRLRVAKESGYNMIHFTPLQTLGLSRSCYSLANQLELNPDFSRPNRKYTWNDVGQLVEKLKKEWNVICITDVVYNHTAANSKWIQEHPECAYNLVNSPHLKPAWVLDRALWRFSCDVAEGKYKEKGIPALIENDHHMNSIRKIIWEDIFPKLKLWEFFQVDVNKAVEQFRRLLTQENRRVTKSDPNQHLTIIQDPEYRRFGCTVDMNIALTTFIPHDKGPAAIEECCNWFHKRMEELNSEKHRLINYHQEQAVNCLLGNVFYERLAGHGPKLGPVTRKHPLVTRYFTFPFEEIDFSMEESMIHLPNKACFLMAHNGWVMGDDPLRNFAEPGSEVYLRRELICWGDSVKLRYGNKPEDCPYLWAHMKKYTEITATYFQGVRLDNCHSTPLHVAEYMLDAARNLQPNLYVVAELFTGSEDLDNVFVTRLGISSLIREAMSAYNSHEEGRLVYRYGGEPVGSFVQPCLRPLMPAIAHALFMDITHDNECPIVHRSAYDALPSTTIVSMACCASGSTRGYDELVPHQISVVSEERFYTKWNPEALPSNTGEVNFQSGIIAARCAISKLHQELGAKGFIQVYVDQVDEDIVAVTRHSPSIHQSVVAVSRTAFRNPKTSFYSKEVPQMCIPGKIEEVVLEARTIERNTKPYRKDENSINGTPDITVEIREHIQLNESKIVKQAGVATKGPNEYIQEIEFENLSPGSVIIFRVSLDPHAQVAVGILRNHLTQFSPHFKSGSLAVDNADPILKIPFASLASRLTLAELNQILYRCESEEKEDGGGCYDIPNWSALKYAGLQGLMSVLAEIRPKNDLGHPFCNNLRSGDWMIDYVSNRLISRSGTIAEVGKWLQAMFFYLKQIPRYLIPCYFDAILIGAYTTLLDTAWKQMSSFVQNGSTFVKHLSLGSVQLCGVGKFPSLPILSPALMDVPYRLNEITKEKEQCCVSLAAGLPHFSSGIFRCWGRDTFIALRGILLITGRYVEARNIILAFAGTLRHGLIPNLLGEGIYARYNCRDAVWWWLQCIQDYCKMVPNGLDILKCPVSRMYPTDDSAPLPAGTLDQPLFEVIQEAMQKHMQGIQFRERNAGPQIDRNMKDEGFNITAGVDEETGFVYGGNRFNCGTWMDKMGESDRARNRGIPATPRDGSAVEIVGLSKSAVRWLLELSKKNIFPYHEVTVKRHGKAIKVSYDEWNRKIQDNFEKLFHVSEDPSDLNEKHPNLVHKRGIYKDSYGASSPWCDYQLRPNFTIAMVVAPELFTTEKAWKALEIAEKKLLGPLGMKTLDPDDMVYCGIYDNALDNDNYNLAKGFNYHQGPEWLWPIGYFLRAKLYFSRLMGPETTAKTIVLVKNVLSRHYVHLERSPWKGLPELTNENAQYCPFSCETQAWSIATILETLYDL
Sequence of UniProt Q9UHP3 (Q9UHP3 whole entry): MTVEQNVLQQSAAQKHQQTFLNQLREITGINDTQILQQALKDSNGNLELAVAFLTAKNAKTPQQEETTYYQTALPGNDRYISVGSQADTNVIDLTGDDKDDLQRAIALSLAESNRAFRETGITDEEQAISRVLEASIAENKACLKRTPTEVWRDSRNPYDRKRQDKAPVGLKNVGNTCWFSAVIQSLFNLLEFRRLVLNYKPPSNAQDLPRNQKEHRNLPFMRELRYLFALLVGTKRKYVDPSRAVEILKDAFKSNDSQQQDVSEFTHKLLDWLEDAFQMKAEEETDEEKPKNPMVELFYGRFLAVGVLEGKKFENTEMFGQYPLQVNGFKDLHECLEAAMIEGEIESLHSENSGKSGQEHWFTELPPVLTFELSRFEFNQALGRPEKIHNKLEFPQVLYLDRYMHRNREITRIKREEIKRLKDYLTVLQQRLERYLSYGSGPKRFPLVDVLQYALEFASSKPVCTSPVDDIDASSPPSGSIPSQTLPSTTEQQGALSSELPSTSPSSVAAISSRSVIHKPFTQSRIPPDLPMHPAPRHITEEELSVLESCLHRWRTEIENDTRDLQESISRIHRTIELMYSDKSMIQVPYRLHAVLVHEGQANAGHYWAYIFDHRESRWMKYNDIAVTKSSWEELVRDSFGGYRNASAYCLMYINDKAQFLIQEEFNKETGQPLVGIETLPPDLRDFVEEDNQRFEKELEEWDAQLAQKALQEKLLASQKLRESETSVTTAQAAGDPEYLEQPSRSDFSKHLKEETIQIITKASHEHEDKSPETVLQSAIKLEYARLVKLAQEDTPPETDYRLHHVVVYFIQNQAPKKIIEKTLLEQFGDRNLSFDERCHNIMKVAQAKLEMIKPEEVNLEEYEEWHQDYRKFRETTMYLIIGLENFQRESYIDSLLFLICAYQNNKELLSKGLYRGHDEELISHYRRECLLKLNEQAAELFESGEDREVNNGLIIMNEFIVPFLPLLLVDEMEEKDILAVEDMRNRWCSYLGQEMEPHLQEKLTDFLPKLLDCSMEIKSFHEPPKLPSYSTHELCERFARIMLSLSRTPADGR
Sequence of UniProt Q96IZ7 (Q96IZ7 whole entry): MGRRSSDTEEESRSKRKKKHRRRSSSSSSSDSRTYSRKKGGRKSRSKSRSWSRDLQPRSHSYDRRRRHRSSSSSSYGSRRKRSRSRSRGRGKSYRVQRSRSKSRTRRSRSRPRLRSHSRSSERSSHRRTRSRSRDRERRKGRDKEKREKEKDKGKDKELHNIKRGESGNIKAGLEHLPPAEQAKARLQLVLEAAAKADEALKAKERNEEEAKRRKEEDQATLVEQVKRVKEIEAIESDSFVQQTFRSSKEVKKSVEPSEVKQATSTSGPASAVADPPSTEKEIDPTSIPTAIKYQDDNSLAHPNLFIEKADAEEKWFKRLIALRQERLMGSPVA
Sequence of UniProt P52565 (P52565 whole entry): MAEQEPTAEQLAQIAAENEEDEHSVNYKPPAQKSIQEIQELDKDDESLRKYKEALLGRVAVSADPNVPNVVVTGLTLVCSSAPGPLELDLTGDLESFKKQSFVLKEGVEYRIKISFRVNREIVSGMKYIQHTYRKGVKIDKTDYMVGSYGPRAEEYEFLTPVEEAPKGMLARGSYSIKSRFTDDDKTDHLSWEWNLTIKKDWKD

Target	thermal stability z-score [1, 3]	thermal stability z-score ([1]; arsenate co-treatment: none)	thermal stability z-score [2]
SCAF4 (UniProt O95104)	0.0769	0.184	0.0697
SREK1 (UniProt Q8WXA9)	0.0164	0.0581	0.00931
ELOVL1 (UniProt Q9BW60)	-0.883	-0.778	0.652
FADD (UniProt Q13158)	-0.805	0.901	0.325
PAGE1 (UniProt O75459)	0.147	0.51	-0.636
ACAD8 (UniProt Q9UKU7)	0.0722	-0.0632	-0.989
RNPEP (UniProt Q9H4A4)	0.126	-0.189	0.878
MANEAL (UniProt Q5VSG8)	-0.276	0.109	0.736
TMEM245 (UniProt Q9H330)	1.28	0.28	1.86
TNS1 (UniProt Q9HBL0)	-0.0135	-0.0322	-0.162
MPDZ (UniProt O75970)	-0.25	-0.0819	0.0169
FAM96A (UniProt Q9H5X1)	-0.0873	-0.652	-1.34
CAMKK1 (UniProt Q8N5S9)	0.776	1.45	4.72
AGL (UniProt P35573)	0.414	0.398	0.0621
C16ORF62 (UniProt Q7Z3J2)	0.411	0.213	0.119
USMG5 (UniProt Q96IX5)	1.21	0.486	0.215
TMX3 (UniProt Q96JJ7)	-0.503	-0.791	1.29
HAUS5 (UniProt O94927)	0.0805	0.111	-0.0216
HMGCL (UniProt P35914)	1.01	0.651	5.41
CDK16 (UniProt Q00536)	0.0459	-0.3	0.0532
DYM (UniProt Q7RTS9)	0.487	-0.0128	-0.365
ARFGEF1 (UniProt Q9Y6D6)	-0.0608	-0.273	-0.154
TSEN15 (UniProt Q8WW01)	-0.438	-0.0314	0.473
N4BP1 (UniProt O75113)	0.103	0.0755	-0.0968

Target	thermal stability z-score [1, 3]	thermal stability z-score ([1]; arsenate co-treatment: none)	thermal stability z-score [2]
PTK2 (UniProt Q05397)	0.189	0.122	-0.0048
PEX3 (UniProt P56589)	-0.415	-0.151	-0.285
HNRNPC (UniProt P07910)	2.24	1.04	0.94
CBX3 (UniProt Q13185)	0.366	0.43	1.76
NUF2 (UniProt Q9BZD4)	-0.884	-0.901	2.02
MIS18A (UniProt Q9NYP9)	-0.127	0.246	0.683
TATDN1 (UniProt Q6P1N9)	0.263	0.514	0.169
NAXE (UniProt Q8NCW5)	0.137	0.266	-0.422
SLC6A9 (UniProt P48067)	-0.26	-0.8	-0.636
ARHGDIA (UniProt P52565)	0.784	0.465	0.318
UBE2A (UniProt P49459)	0.343	0.172	-0.0388
CDC6 (UniProt Q99741)	-0.0605	0.0639	-0.258
BORCS5|LOH12CR1	1.36	1.29	0.518
ITGA5 (UniProt P08648)	0.408	0.203	0.211
SLC25A1 (UniProt P53007)	1.03	0.6	0.43
FARS2 (UniProt O95363)	-0.386	-0.359	-0.701
EPB41L1 (UniProt Q9H4G0)	-0.509	-0.127	0.139
DHX29 (UniProt Q7Z478)	0.104	0.27	0.267
WRAP53 (UniProt Q9BUR4)	-0.113	-0.15	-0.337
GPT2 (UniProt Q8TD30)	0.342	0.427	-0.153
USP25 (UniProt Q9UHP3)	-0.18	-0.113	0.667
CYB5R1 (UniProt Q9UHQ9)	1.47	0.244	-2.32
LUC7L3 (UniProt O95232)	-1.15	-0.26	-0.899
EGLN1 (UniProt Q9GZT9)	0.176	0.423	1.64

Target	thermal stability z-score [1, 3]	thermal stability z-score ([1]; arsenate co-treatment: none)	thermal stability z-score [2]
C1ORF174 (UniProt Q8IYL3)	-2.39	-1.46	-0.845
PARP12 (UniProt Q9H0J9)	0.0419	-0.00139	-0.282
NTMT1 (UniProt Q9BV86)	-0.319	-0.204	-0.137
PTGS2 (UniProt P35354)	-0.361	0.261	0.269
RSRC1 (UniProt Q96IZ7)	1.06	0.987	1.14
GAR1 (UniProt Q9NY12)	-0.515	-0.354	-0.376
TUBGCP2 (UniProt Q9BSJ2)	-0.0736	-0.0416	0.27
PNPLA6 (UniProt Q8IY17)	0.758	0.548	0.246
CDC42SE1 (UniProt Q9NRR8)	-0.0857	0.383	-0.154
CASP4 (UniProt P49662)	0.133	0.419	0.496
RPP38 (UniProt P78345)	-0.128	0.146	-0.347
EPM2AIP1 (UniProt Q7L775)	-0.0474	0.0432	-0.0491
EEF1G (UniProt P26641)	0.0213	0.149	0.215
KATNAL1 (UniProt Q9BW62)	0.798	-0.886	-0.0764
LTV1 (UniProt Q96GA3)	0.231	-0.172	1.01
SSH3 (UniProt Q8TE77)	0.153	-0.0576	-0.0687
GOLGA2 (UniProt Q08379)	-0.426	-0.0551	0.679
OFD1 (UniProt O75665)	-0.239	0.0566	-0.000259
STX12 (UniProt Q86Y82)	0.379	0.716	0.452
TFB1M (UniProt Q8WVM0)	-0.367	0.233	0.0871
B2M (UniProt P61769)	-0.115	-0.125	1.06
DHCR7 (UniProt Q9UBM7)	-0.283	-0.384	0.411
CCDC127 (UniProt Q96BQ5)	-0.707	-0.371	-0.192
